One test has as its target T1, MRP1-Kir6.2 channels (Homo sapiens, UniProt P33527, M117T).
T1 construct: expressed in transfected cells; host or cells: Xenopus laevis oocytes injected with in vitro transcribed mRNA; excised inside-out patches
The test can be described thus: Inside-out patch-clamp of MRP1-Kir6.2 fusion channels expressed in Xenopus oocytes. Type of test: cell-based, mouse Kir6.2. How it is done: (§1) mRNAs coding Kir6.2 (˜2 ng) and wild-type SURs (˜6 ng) or mRNAs coding the fusion constructs (˜8 ng) were co-injected into defoliculated Xenopus laevis oocytes. Injected oocytes were stored at 19° C. in Barth's solution (in mM: 1 KCl, 0.82 MgSO4, 88 NaCl, 2.4 NaHCO3, 0.41 CaCl2, 0.3 Ca(NO3)2, 16 HEPES, pH 7.4) with 100 U/ml penicillin, 100 μg/ml streptomycin, and 100 μg/ml gentamycin.
Two to 15 days after injection, oocytes were devitellinized and recombinant KATP channels were characterized by the patch-clamp technique in the excised inside-out configuration (Hamill et al., Arch. Eur. J. Physiol., 1981, 391, 85-100). Patch pipettes (2-10 MΩ) contained 154 mM K^+, 146 mM Cl^−, 5 MM Mg^2+, and 10 mM PIPES (pH 7.1). The cytoplasmic face of the patch was bathed in solutions which all contained 174 mM K^+, 40 mM Cl^−, 1 mM EGTA, 1 Mg^2+, 10 mM PIPES (pH 7.1), and methanesulfonate (approximately, 160 mM, depending on the ATP and ADP amounts added—as the remaining anions. ATP and ADP (potassium salt; Sigma), SR47063 (20 mM stock in DMSO; Sanofi Recherche), diazoxide (100 mM stock in DMSO; Sigma) and P1075 (20 mM stock in DMSO; Leo Pharmaceutical Products) were added as specified. The membrane potential was maintained at −50 mV. Experiments were conducted at room temperature (22-24° C.). […]

Another test concerns MRP1-Kir6.2KR370AA. The test can be described thus: Inside-out patch-clamp of MRP1-Kir6.2KR370AA channels expressed in Xenopus oocytes. It counts as cell-based, human MRP1, mouse Kir6.2. To be noted: compared with MRP1-Kir6.2.
Excerpt: (§2) Removal of the RKR endoplasmic reticulum retention signal of Kir6.2 was accomplished either by deletion of the last 26 or 36 residues of the C-terminal extremity (Tucker et al., Nature, 1997, 387: 179-183) through introduction of a premature stop codon at the correct position, or by site-directed mutagenesis of RKR to RAA (i.e., K370A and R371A). The resulting constructs, named Kir6.2Δ26, Kir6.2ΔC36, and Kir6.2KR370AA, were created by mutagenesis amplification (QuickChange site-directed mutagenesis kit, Stratagene). The sequences corresponding to the different constructs are as presented in Table 1: SUR2A-Kir6.2ΔC36 (SEQ ID NO: 3), MRP1-Kir6.2ΔC36 (SEQ ID NO: 4), YCF1-Kir6.2ΔC36 (SEQ ID NO: 5) and MRP1-Kir6.2[KR370AA] (SEQ ID NO: 6).
as §1
(§3) Two to 15 days after injection, oocytes were devitellinized and recombinant KATP channels were characterized by the patch-clamp technique in the excised inside-out configuration (Hamill et al., Arch. Eur. J. Physiol., 1981, 391, 85-100). […]

For another test, the target named is T2, SUR1-Kir6.2 channels (UniProt Q09427+Q61743).
T2 construct: expressed in transfected cells; host or cells: Xenopus laevis oocytes injected with in vitro transcribed mRNA; excised inside-out patches
T2 sequence (Q09427+Q61743 fused): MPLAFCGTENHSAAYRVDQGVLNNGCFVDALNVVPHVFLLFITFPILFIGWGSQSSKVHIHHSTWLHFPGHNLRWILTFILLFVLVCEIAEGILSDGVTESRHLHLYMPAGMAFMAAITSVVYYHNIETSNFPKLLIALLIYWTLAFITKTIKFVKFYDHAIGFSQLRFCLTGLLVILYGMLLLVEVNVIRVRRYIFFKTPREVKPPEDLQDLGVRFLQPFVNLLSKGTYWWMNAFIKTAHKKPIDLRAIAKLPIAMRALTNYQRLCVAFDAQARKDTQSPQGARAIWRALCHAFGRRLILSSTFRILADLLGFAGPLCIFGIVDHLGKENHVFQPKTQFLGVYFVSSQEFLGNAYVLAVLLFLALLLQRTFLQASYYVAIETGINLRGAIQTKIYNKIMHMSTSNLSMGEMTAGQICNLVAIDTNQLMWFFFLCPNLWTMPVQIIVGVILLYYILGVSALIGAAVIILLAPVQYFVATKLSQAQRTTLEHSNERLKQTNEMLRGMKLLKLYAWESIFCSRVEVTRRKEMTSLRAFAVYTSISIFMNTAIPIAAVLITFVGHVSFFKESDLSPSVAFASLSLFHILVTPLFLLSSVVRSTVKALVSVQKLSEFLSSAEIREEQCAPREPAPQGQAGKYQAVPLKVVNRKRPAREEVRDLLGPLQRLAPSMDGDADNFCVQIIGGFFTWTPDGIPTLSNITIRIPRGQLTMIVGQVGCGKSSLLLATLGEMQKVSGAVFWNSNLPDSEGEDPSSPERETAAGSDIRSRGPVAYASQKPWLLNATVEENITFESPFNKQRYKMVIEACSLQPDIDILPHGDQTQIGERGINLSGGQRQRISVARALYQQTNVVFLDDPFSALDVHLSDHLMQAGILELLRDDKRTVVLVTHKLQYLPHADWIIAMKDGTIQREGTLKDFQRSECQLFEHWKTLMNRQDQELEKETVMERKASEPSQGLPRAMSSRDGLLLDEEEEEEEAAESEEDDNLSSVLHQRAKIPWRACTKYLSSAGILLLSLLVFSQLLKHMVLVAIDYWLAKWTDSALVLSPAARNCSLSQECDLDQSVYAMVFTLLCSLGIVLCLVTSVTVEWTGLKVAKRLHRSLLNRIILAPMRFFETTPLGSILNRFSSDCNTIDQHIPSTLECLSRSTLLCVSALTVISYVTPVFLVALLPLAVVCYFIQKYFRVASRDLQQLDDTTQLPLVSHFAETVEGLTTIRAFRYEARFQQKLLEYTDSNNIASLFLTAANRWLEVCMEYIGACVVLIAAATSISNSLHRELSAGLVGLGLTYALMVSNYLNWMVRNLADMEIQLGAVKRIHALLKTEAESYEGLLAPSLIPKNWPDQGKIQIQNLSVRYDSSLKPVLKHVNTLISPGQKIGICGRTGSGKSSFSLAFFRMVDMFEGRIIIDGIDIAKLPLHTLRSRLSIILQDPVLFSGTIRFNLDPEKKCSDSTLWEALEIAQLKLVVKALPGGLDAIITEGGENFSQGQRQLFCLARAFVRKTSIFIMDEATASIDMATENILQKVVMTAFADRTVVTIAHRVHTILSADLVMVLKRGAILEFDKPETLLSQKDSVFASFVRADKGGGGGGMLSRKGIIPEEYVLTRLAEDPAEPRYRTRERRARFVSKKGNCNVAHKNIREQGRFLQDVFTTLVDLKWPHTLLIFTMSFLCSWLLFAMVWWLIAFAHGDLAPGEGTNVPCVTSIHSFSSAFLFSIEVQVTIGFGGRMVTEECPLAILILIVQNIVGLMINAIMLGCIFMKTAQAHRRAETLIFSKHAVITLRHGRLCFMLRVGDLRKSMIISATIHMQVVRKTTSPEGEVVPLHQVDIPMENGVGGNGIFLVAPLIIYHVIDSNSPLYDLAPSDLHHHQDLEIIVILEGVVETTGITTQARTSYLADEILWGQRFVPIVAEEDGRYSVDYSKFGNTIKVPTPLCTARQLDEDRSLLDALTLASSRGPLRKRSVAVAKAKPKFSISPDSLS
Nature of the test: Inside-out patch-clamp of SUR1-Kir6.2 fusion channels expressed in Xenopus oocytes. Type of test: cell-based, hamster SUR1, mouse Kir6.2. Here is the method: as §1
(§4) Two to 15 days after injection, oocytes were devitellinized and recombinant KATP channels were characterized by the patch-clamp technique in the excised inside-out configuration (Hamill et al., Arch. Eur. J. Physiol., 1981, 391, 85-100). Patch pipettes (2-10 MΩ) contained 154 mM K^+, 146 mM Cl^−, 5 MM Mg^2+, and 10 mM PIPES (pH 7.1). The cytoplasmic face of the patch was bathed in solutions which all contained 174 mM K^+, 40 mM Cl^−, 1 mM EGTA, 1 Mg^2+, 10 mM PIPES (pH 7.1), and methanesulfonate (approximately, 160 mM, depending on the ATP and ADP amounts added—as the remaining anions. ATP and ADP (potassium salt; Sigma), SR47063 (20 mM stock in DMSO; Sanofi Recherche), diazoxide (100 mM stock in DMSO; Sigma) and P1075 (20 mM stock in DMSO; Leo Pharmaceutical Products) were added as specified. The membrane potential was maintained at −50 mV. Experiments were conducted at room temperature (22-24° C.).
(§5) Applications of the various solutions to the intracellular face of the patch was performed using a RSC-100 rapid-solution-changer (Bio-Logic). Analog signals were filtered at 300 Hz and sampled at 1 kHz. Slow fluctuations of the no-channel-open baseline of the signal were removed by interactive fitting of the baseline with a spline curve and subtraction of this fit from the signal. Acquisition, analysis, and presentation were performed with in-house software.

A further test deals with T3, SUR2A-Kir6.2 channels (Rattus norvegicus, UniProt Q63563).
T3 construct: expressed in transfected cells; host or cells: Xenopus laevis oocytes injected with in vitro transcribed mRNA; excised inside-out patches
T3 sequence (Q63563 with tags, fused parts or gaps): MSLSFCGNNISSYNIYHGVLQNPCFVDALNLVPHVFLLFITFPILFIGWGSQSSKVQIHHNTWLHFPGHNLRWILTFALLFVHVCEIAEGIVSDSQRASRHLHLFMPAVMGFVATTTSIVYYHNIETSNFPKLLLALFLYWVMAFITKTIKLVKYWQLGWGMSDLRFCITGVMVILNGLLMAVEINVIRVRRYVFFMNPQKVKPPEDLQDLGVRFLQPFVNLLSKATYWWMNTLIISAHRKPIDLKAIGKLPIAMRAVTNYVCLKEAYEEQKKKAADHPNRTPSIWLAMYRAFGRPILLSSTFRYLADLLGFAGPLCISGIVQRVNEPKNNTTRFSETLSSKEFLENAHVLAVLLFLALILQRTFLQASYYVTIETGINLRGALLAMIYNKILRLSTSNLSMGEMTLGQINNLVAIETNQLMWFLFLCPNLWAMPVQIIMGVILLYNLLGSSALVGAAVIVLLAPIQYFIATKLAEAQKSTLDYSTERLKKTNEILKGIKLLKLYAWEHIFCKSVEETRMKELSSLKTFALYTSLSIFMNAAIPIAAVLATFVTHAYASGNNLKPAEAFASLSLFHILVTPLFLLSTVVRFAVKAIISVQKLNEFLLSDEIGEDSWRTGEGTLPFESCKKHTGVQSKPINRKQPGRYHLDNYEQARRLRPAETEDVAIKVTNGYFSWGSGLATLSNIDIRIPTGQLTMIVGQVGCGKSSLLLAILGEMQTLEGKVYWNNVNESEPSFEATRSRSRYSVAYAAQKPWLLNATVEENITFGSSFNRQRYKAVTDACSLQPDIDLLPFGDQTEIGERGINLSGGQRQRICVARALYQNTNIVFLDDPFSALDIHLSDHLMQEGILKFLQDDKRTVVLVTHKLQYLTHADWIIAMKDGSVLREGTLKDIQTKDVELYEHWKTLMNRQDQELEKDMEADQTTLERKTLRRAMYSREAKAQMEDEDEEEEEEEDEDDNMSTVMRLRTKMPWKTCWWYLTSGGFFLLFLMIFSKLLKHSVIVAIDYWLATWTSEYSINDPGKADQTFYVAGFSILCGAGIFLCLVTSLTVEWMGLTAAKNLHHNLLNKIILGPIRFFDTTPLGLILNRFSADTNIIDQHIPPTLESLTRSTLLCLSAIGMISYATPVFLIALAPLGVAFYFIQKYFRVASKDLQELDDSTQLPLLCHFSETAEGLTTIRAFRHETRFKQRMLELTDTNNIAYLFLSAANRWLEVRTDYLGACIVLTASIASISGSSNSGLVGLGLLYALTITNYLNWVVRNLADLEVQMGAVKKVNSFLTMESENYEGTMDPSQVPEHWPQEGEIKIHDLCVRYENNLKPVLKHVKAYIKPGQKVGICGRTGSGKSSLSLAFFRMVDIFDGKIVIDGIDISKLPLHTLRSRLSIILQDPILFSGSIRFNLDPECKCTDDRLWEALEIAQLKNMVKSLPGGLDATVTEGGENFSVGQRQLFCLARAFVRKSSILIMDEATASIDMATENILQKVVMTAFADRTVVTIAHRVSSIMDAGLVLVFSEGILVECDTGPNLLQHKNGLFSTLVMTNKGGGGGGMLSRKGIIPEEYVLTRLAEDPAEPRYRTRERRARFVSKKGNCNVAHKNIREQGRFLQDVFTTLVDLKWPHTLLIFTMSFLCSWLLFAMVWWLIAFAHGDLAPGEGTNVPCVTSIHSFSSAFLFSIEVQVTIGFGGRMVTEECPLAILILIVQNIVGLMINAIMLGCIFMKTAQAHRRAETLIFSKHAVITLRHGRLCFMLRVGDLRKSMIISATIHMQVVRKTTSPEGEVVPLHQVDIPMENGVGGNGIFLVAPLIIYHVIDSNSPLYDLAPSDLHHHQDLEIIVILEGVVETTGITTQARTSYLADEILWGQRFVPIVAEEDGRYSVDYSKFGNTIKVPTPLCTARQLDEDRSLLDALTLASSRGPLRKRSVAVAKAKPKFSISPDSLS
The test can be described thus: Inside-out patch-clamp of SUR2A-Kir6.2 fusion channels expressed in Xenopus oocytes. Type of test: cell-based, mouse Kir6.2. To be noted: for Effect of K-channel opener on SUR2A-Kir6.2 channels: opener 10 μM, in the presence of partially-inhibiting ATP (100 μM), -50 mV. How it is done:
as §1, §4, §5

In a further test the target is T4, Kir6.2ΔC36 channels (Mus musculus, UniProt Q61743).
T4 construct: expressed in transfected cells; host or cells: Xenopus laevis oocytes; excised inside-out patches
T4 sequence (Q61743 1-354 limits assumed): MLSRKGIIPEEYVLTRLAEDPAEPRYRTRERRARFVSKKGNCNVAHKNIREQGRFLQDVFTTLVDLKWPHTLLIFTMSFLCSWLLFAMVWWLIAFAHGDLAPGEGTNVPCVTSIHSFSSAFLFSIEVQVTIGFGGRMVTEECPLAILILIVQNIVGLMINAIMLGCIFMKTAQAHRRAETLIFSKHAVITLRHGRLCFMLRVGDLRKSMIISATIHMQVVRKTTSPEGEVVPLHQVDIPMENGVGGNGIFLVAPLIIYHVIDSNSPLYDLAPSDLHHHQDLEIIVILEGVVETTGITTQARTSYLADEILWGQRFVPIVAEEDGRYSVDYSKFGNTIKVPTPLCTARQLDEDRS
The test can be described thus: Inside-out patch-clamp of Kir6.2ΔC36 channels expressed alone in Xenopus oocytes. Type of test: cell-based.
Excerpt: as §2, §1, §3

In the next test the target is T5, YCF1-Kir6.2ΔC36 (UniProt P39109+Q61743).
T5 construct: expressed in transfected cells; host or cells: Xenopus laevis oocytes injected with in vitro transcribed mRNA; excised inside-out patches
Nature of the test: Inside-out patch-clamp of YCF1-Kir6.2ΔC36 channels expressed in Xenopus oocytes. It counts as cell-based, yeast YCF1, mouse Kir6.2.
Excerpt: as §2, §1, §3

In another test the test system is Xenopus oocytes. Nature of the test: Density of active fusion channels: ATP-inhibitable current after patch excision. It counts as cell-based, Xenopus laevis. Here is the method:
as §1, §4, §5

Where [1] appears, read: ADP at submillimolar concentrations.
Setting [2] is: total current blocked by 2 mM ATP after patch excision.

For the molecule `Nc1ncnc2c1ncn2[C@@H]1O[C@H](COP(=O)(O)OP(=O)(O)O)[C@@H](O)[C@H]1O` [ADP], the “Effect of ADP on MRP1-Kir6.2 currents” value at MRP1-Kir6.2 channels (ADP 100 μM and 300 μM, in the presence of 100 μM ATP) was “reduced in a dose-dependent manner”. For the same molecule, the “Sensitivity of MRP1-Kir6.2KR370AA to ADP” value in the test with MRP1-Kir6.2KR370AA was “could not be distinguished from the non-mutated MRP1-Kir6.2 protein”. The “Effect of ADP on SUR1-Kir6.2 fusion channels” value at SUR1-Kir6.2 channels (setting [1]) is “activation”. The “Effect of ADP on SUR2A-Kir6.2 fusion channels” value at SUR2A-Kir6.2 channels (setting [1]) is on record as “activation”. Also, on Kir6.2ΔC36 channels, the “Effect of ADP on Kir6.2ΔC36 (SUR-less) channels” value was “inhibited”.

Regarding `Nc1ncnc2c1ncn2[C@@H]1O[C@H](COP(=O)(O)OP(=O)(O)OP(=O)(O)O)[C@@H](O)[C@H]1O` [ATP], at MRP1-Kir6.2 channels, the “Sensitivity of MRP1-Kir6.2 channels to inhibition by ATP” value was “less sensitive to inhibition by ATP than either SUR-Kir6.2 fusions or wild-type channels”. For the same molecule, the “Sensitivity of MRP1-Kir6.2KR370AA to ATP” value in the test with MRP1-Kir6.2KR370AA was “could not be distinguished from the non-mutated MRP1-Kir6.2 protein”. The “Sensitivity of SUR1-Kir6.2 channels to ATP” value at SUR1-Kir6.2 channels is “high sensitivity”. Moreover, the “Effect of ATP on YCF1-Kir6.2ΔC36 currents” value on YCF1-Kir6.2ΔC36 is “ATP-sensitive currents”. At SUR2A-Kir6.2 channels, the “Sensitivity of SUR2A-Kir6.2 channels to ATP” value is “high sensitivity”.

Regarding `CCC(C)(C)N=C(NC#N)Nc1cccnc1` [P1075], the “Effect of K-channel opener on SUR2A-Kir6.2 channels” value at SUR2A-Kir6.2 channels is “activated”.

In the case of `CC1(C)C=C(n2ccccc2=NC#N)c2cc([N+](=O)[O-])ccc2O1` [SR47063], the “Effect of K-channel opener on SUR2A-Kir6.2 channels” value on SUR2A-Kir6.2 channels was “activated”.

For the molecule `CC1=NS(=O)(=O)c2cc(Cl)ccc2N1` [diazoxide], the “Effect of opener on SUR1-Kir6.2 channels” value at SUR1-Kir6.2 channels (diazoxide 300 μM) is reported as “activated”.

For the molecule “MRP1-Kir6.2: fusion of human MRP1 C-terminus to mouse Kir6.2 N-terminus with hexaglycine spacer”, in the test with Xenopus oocytes (setting [2]), the “Patch current, fold lower than SUR1-Kir6.2” value amounted to 7 fold and the “Patch current, fold lower than SUR2A-Kir6.2” value stood at 5 fold.

As for “YCF1-Kir6.2: fusion of yeast YCF1 with mouse Kir6.2, hexaglycine spacer”, the “ATP-inhibitable current of the construct after patch excision” value in the test on Xenopus oocytes is given as “no detectable exogenous current”.

Regarding “YCF1-Kir6.2ΔC36: YCF1-Kir6.2 fusion with last 36 residues truncated to remove the RKR signal”, in the test on Xenopus oocytes, the “ATP-inhibitable current of the construct after patch excision” value was “noticeably small compared to the other constructs”.

These data come from patent publication US20050063989A1, “Ion channel hybrid proteins as electrical sensors and use thereof” (COMMISSARIAT A L'ENERGIE ATOMIQUE, priority 2003, published 2005).
